Test results: patent publication US20240298646A1, “ANTIBIOFILM PRESERVATIVE COMPOSITIONS” (SHARON PERSONAL CARE LTD., priority 2021, published 2024)

Assays:
Test in all cases: Minimum inhibitory concentration (MIC) and checkerboard assay
Format in all cases: cell-based
Conditions in all cases: unit assumed
[1] = tested on: Aspergillus brasiliensis (ATCC 16404)
Text: (§1) Escherichia coli (ATCC 8739), Staphylococcus aureus (ATCC 6538), P. aeruginosa (ATCC 9027), Candida albicans (ATCC 10231), and Aspergillus brasiliensis (ATCC 16404) were obtained from ATCC and cultured according to the manufacturer's instructions. These microorganisms are routinely used for minimum inhibitory concentration (MIC), checkerboards and challenge tests according to the US and EU recommendations for the efficacy of preservatives in the cosmetic industry. Bacterial strains were maintained in tryptic soy agar (TSA) (Hy-labs, Rehovot, Israel), while yeast and mold strains were maintained in sabouraud dextrose agar (SDA) (Hy-labs, Israel), supplemented with oxytetracycline at a concentration of 1% (Hy-labs, Israel). […] Briefly, growth of E. coli, S. aureus, P. aeruginosa, P. gergoviea, B. cepacia, C. albicans, and A. brasiliensis was observed during incubation with two-fold serial dilutions of the abovementioned compounds in Mueller Hinton (MH) broth, using a 96-well plate (BIOFUL, Israel). For the checkerboard assay using a 96-well plate, decreasing concentrations of one compound were added from top to bottom of the plate using serial dilutions. Decreasing concentrations of the second compound were added to the plate from the right, having the highest concentration, to the left side of the plate with the lowest concentration. […] Bacteria inoculated plates were incubated for 24 h at 32° C. with shaking, while fungi inoculated plates were incubated at 23° C. for 48-72 h with shaking. Microorganism growth was evaluated by a spectrophotometer O.D. reads (BioTek, Israel). In another exemplary procedure, MIC evaluation test with A. brasiliensis was performed in test tubes. Growth in this case is visually evaluated. A pure culture of a single microorganism was grown in Tryptic soy broth, or Sabouraud broth for yeast and mold. […] While the MIC is defined as the lowest concentration of molecule alone or in combination that inhibited visible growth, the in vitro interactions can be quantified as FICI and calculated using the following formula: […]

[2] = tested on: Candida albicans (ATCC 10231)
Text: as §1, with “In additional” for “In another”, “with Candida albicans” for “with A. brasiliensis”, “Sabouraud dextrose” for “Sabouraud”

[3] = tested on: Staphylococcus aureus (ATCC 6538)
Text: (§2) Escherichia coli (ATCC 8739), Staphylococcus aureus (ATCC 6538), P. aeruginosa (ATCC 9027), Candida albicans (ATCC 10231), and Aspergillus brasiliensis (ATCC 16404) were obtained from ATCC and cultured according to the manufacturer's instructions. These microorganisms are routinely used for minimum inhibitory concentration (MIC), checkerboards and challenge tests according to the US and EU recommendations for the efficacy of preservatives in the cosmetic industry. Bacterial strains were maintained in tryptic soy agar (TSA) (Hy-labs, Rehovot, Israel), while yeast and mold strains were maintained in sabouraud dextrose agar (SDA) (Hy-labs, Israel), supplemented with oxytetracycline at a concentration of 1% (Hy-labs, Israel). […] Briefly, growth of E. coli, S. aureus, P. aeruginosa, P. gergoviea, B. cepacia, C. albicans, and A. brasiliensis was observed during incubation with two-fold serial dilutions of the abovementioned compounds in Mueller Hinton (MH) broth, using a 96-well plate (BIOFUL, Israel). For the checkerboard assay using a 96-well plate, decreasing concentrations of one compound were added from top to bottom of the plate using serial dilutions. Decreasing concentrations of the second compound were added to the plate from the right, having the highest concentration, to the left side of the plate with the lowest concentration. […] Bacteria inoculated plates were incubated for 24 h at 32° C. with shaking, while fungi inoculated plates were incubated at 23° C. for 48-72 h with shaking. Microorganism growth was evaluated by a spectrophotometer O.D. reads (BioTek, Israel). The culture is standardized using standard microbiological techniques to have a concentration of very near 1 million cells per milliliter. The antimicrobial agent is diluted a number of times, with Tryptic soy broth or Sabouraud broth for fungi. After the antimicrobial agent had been diluted, a volume of the standardized inoculums was added to each dilution vessel, bringing the microbial concentration to approximately 1,000,000 cells per milliliter. The inoculated, serially diluted antimicrobial agent was incubated at an appropriate temperature for the test organism, 24 hours for bacteria 48 for yeast and 72 for mold. […] The microorganism strains used for the test were E. coli ATCC 8739, P. aeruginosa ATCC 9027, S. aureus ATCC 6538, C. albicans ATCC 10231, A. brasiliensis ATCC 16404. Measuring synergy between preservatives can be done by the widely described Fractional Inhibitory Concentration Index (FICI). While the MIC is defined as the lowest concentration of molecule alone or in combination that inhibited visible growth, the in vitro interactions can be quantified as FICI and calculated using the following formula: […]

[4] = tested on: Escherichia coli (ATCC 8739)
Text: as §2

[5] = tested on: P. aeruginosa (ATCC 9027)
Text: as §2

SMILES: CC(=O)[O-].CC(=O)[O-].[Zn+2] [Zinc Acetate, zinc acetate]
- MIC A. brasiliensis [1]: 100 µg/mL
- MIC C. albicans [2]: 110 µg/mL
- MIC S. aureus [3]: 160 µg/mL
- MIC E. coli [4]: 312 µg/mL
- MIC P. aeruginosa [5]: 312 µg/mL

SMILES: Cc1occc(=O)c1O [Maltol, maltol]
- MIC A. brasiliensis [1]: 1250 µg/mL
- MIC C. albicans [2]: 1880 µg/mL
- MIC S. aureus [3]: 5000 µg/mL
- MIC E. coli [4]: 5000 µg/mL
- MIC P. aeruginosa [5]: 1250 µg/mL

SMILES: CCCCC(CC)COCC(O)CO (stereo not drawn) [EHG, ethylhexylglycerin]
- MIC A. brasiliensis [1]: 1250 µg/mL
- MIC C. albicans [2]: 2500 µg/mL
- MIC S. aureus [3]: 2500 µg/mL
- MIC E. coli [4]: 5000 µg/mL
- MIC P. aeruginosa [5]: > 5000 µg/mL
